In ChEMBL document CHEMBL5046234, “Discovery of novel TrkA allosteric inhibitors: Structure-based virtual screening, biological evaluation and preliminary SAR studies” (Eur J Med Chem, 2022) one finds IC50 and inhibition data, which are given here for seven compounds.

Experiment [1] deals with BaF3. Nature of the experiment: Antiproliferative activity against mouse BaF3 cells expressing CD74 fused TRKA assessed as cell growth inhibition incubated for 72 hrs by CCK8 assay. Format: functional, cell-based. To be noted: BaF3, 72 h. (In general: Tetrazolium assays rely on reduction of a dye to a coloured formazan, in cell work by metabolically active cells.)
Experiment [2] deals with BDNF/NT-3 growth factors receptor (Homo sapiens, UniProt Q16620). Nature of the experiment: Inhibition of TRKB (unknown origin) by PathHunter Enzyme Fragment Complementation assay.
Experiment [3] deals with High affinity nerve growth factor receptor (Homo sapiens) (UniProt P04629). Briefly: Inhibition of CD74 fused TRKA (unknown origin) autophosphorylation expressed in mouse BaF3 cells by western blot analysis. It counts as cell-based. The note with it: dose 0.08-50 µM.
Experiment [4] relates to BaF3. Briefly: Antiproliferative activity against mouse BaF3 cells expressing MPRIP fused TRKA assessed as cell growth inhibition incubated for 72 hrs by CCK8 assay. Format: functional, cell-based. To be noted: BaF3, 72 h.
In experiment [5] the target is High affinity nerve growth factor receptor (Homo sapiens) (UniProt P04629). Briefly: Inhibition of CD74 fused TRKA (unknown origin) expressed in mouse BaF3 cells assessed as inhibition of PLCgamma1 phosphorylation by western blot analysis. Format: cell-based. The note with it: dose 0.08-50 µM.
Experiment [6] has the same target. Briefly: Inhibition of CD74 fused TRKA (unknown origin) expressed in mouse BaF3 cells assessed as inhibition of AKT phosphorylation by western blot analysis. It counts as cell-based. To be noted: dose 0.08-50 µM.
For experiment [7] the target is unchanged. Briefly: Inhibition of CD74 fused TRKA (unknown origin) expressed in mouse BaF3 cells assessed as inhibition of ERK phosphorylation by western blot analysis. It counts as cell-based. A general note: A western blot detects proteins with antibodies after separation by electrophoresis.
Experiment [8] relates to BaF3. Nature of the experiment: Antiproliferative activity against mouse BaF3 cells assessed as cell growth inhibition incubated for 72 hrs by CCK8 assay. Format: functional, cell-based. The note with it: BaF3, 72 h.
Experiment [9] has as its system BaF3. Nature of the experiment: Antiproliferative activity against mouse BaF3 cells expressing QKI fused TRKB assessed as cell growth inhibition incubated for 72 hrs by CCK8 assay. To be noted: BaF3, 72 h. Format: functional, cell-based.
Experiment [10] concerns BaF3. Nature of the experiment: Antiproliferative activity against mouse BaF3 cells expressing EML4 fused TRKC assessed as cell growth inhibition incubated for 72 hrs by CCK8 assay. Format: functional, cell-based. The note with it: BaF3, 72 h.

Chain of High affinity nerve growth factor receptor (Homo sapiens) (P04629 33-796 limits assumed): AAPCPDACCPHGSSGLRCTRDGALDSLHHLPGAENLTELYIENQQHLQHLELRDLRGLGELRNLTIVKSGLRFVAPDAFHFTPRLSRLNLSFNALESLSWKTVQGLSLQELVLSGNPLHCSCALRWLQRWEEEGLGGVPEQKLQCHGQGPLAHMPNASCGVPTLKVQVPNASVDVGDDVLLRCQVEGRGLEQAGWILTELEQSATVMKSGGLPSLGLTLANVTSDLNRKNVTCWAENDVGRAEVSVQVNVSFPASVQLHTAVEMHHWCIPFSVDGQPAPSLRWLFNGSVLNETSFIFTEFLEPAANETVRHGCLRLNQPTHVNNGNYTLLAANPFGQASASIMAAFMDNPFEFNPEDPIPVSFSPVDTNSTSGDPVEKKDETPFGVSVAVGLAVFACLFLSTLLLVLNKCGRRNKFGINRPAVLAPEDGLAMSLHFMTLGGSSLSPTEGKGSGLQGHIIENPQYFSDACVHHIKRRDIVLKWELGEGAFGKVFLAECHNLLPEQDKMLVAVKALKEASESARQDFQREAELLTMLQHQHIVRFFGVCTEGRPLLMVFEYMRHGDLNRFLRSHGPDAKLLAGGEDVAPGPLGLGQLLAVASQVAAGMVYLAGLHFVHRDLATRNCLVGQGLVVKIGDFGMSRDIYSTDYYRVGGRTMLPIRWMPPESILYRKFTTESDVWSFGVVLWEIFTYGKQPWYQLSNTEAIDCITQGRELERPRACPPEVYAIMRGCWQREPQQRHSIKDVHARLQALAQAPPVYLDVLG
Chain of BDNF/NT-3 growth factors receptor (Q16620 whole entry, the tested form may be a part): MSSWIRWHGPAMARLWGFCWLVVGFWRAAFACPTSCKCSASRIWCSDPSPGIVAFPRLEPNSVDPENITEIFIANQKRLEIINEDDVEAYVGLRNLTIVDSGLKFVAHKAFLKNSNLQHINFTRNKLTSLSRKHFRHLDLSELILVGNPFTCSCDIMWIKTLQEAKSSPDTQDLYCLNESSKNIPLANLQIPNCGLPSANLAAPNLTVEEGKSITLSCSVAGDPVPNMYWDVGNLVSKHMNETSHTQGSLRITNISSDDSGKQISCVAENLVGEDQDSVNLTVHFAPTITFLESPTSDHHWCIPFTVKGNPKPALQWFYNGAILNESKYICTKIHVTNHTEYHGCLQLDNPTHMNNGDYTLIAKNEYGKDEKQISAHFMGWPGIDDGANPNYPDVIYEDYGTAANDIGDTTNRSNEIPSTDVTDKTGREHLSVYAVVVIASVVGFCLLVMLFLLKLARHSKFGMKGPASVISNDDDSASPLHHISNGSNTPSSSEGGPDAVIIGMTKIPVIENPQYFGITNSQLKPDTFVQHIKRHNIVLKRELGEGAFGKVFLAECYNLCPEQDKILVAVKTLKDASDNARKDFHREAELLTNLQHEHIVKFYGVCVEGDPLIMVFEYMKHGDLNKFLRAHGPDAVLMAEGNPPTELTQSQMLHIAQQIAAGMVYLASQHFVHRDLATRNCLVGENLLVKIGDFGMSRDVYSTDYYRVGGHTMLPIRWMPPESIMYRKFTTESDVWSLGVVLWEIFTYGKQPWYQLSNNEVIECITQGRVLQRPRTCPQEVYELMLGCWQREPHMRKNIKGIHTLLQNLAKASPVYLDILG

As a reminder, the IC50 is the concentration needed to halve the response being measured. In the case of `CN1CCN(c2ccc(NC(=O)c3cc(N4CCCC4=O)c(Cl)cc3Cl)cn2)CC1`, the IC50 in the experiment on BaF3 [1] was 1.83 µM.
Turning to `CN1CCN(c2ccc(NC(=O)c3ccc(Cl)c(N4CCCC4=O)c3)cn2)CC1`, the half-maximal inhibitory concentration (IC50) with BaF3 [1] is 1.55 µM.
Consider `Cc1ccc(C(=O)Nc2ccc(N3CCCC3=O)nc2)cc1N1CCCC1=O`, for which, in the experiment with BaF3 [1], the IC50 was 7.23 µM.
In experiment [2], `Cc1ncc(NC(=O)NC2c3ccccc3-c3ccccc32)c(-c2ccccc2)n1` came in with an IC50 of 81 µM.
For the compound `CN1CCN(c2cc(-c3ccccc3)c(NC(=O)c3cc(N4CCCC4=O)c(Cl)cc3Cl)cn2)CC1`, the IC50 in the experiment with BaF3 [1] is > 10 µM.
For the compound `Cc1ccc(C(=O)Nc2ccc(N3CCN(C4CCCC4)C3=O)nc2)cc1N1CCCC1=O`, the inhibition result in [3], in experiment [5], in experiment [6] and in experiment [7] was “Dose-Dependent Effect” in each case. The IC50 is 3.32 µM in the experiment on BaF3 [4]; 2.91 µM with BaF3 [1]; > 10 µM with BaF3 [8]; 6.17 µM in the experiment with BaF3 [9]; > 10 µM in the experiment on BaF3 [10].
As to `Cc1ccc(C(=O)Nc2ccc(N3CCN(C)CC3)nc2)cc1N1CCCC1=O`, in the experiment with BaF3 [1], the half-maximal inhibitory concentration (IC50) turned out to be 1.99 µM.
